Test: First pharmacokinetic study of I-ol, calculated blood concentration
Format: in vivo
Conditions: rat
Procedure: Following these studies, we performed a single pharmacokinetic study with I-ol to get evidence for a possible further development of this lead compound. The complete study is summarized in the Word document " First pharmacokinetic study of I-ol".
Assuming a maximum oral bioavailability of 0.1 percent for I-ol, the following comparison results:
The peroral intake of 0.4 mg I-ol/kg body weight of the rat leads to a blood concentration of 6.3 ng I-ol/ml, which corresponds to 26.3 nmol I-ol/l. An average body weight of 230 g and a blood volume of 14.5 ml was assumed. The molecular mass of I-ol is 240 g/mol. An oral bioavailability of 0.1% was used despite reasonable doubt about the finality of this amount.

## OCCCCCCCCCCCCn1ccnc1 [I-ol]
oral, assumed value from first pharmacokinetic study
  maximum oral bioavailability: ≤ 0.1%
Peroral 0.4 mg/kg body weight, bioavailability 0.1% assumed
  calculated blood concentration: 26.3 nmol I-ol/l
Peroral 0.4 mg/kg body weight, bioavailability 0.1%, blood volume 14.5 ml, body weight 230 g assumed
  calculated blood concentration: 6.3 ng I-ol/ml
Peroral 4 mg/kg, bioavailability 0.1% assumed
  calculated blood concentration: 263 nmol/L
Peroral 40 mg/kg, bioavailability 0.1% assumed
  calculated blood concentration: 2630 nmol/L
